“Also recorded” adds a separate entry of the source.
Tests used:
human WEE1 protein = test system: T1, human WEE1 protein; assay: ELISA of CDK1 phosphorylation (CycLex WEE1 Kinase Assay/Inhibitor Screening Kit), WEE1; type: biochemical; settings: 1 μM inhibitor, 60 min at 30 °C
T1 construct: purchased MBL International CYE1172

recombinant WEE2 protein = test system: T2, recombinant WEE2 protein; assay: ELISA of CDK1 phosphorylation (CycLex kit), WEE2; type: biochemical, human; settings: 1 μM inhibitor, 60 min at 30 °C
T2 construct: made in house

bovine oocytes = assay: Bovine in vitro fertilization (exit from metaphase II arrest); type: cell-based
HEK 293 cells = assay: Somatic cell proliferation assay (dye dilution, flow cytometry); type: cell-based
Source text: To determine off-target effects of inhibitors on somatic cell WEE1, a proliferation assay was used as previously reported [22]. […] Independent cell cultures were collected at 0-, 48-, 72-, and 96-h post loading with a membrane permeable fluorophore, cell trace violet dye (Cat# C34557; ThermoFisher, Waltham, MA), which diminishes in concentration within the cell after each progressive division. Duplicate samples were collected and fixed for analysis by flow cytometry.
To evaluate the biological off-target effect of candidate inhibitors on mitosis, we use somatic cell culture and flow cytometry to assess proliferation disruption. […] Prior to each culture experiment, we treat the cells with a membrane permeable fluorescent dye to track cellular division activity. As cells divide the dye becomes diluted and the fluorescent signal decreases. We use flow cytometry, with at least 20 000 events counted to measure fluorescence intensity to indicate changes in cell proliferation in the presence of inhibitors [38]. The more inhibitory a drug, the more dye will be retained in the cells and so comparison can be made to controls to determine the level of mitotic activity.

MYT1 (PKMYT1) = test system: MYT1 (PKMYT1); parameters: method as in PMID 28792760; settings: direct binding studies; cited from earlier work

## C=CCn1c(=O)c2cnc(Nc3ccc(N4CCN(C)CC4)cc3)nc2n1-c1cccc(C(C)(C)O)n1 [MK-1775, Adavosertib]
Human WEE1 protein
  WEE1 phosphorylation activity of CDK1: significantly reduces; also recorded: significantly inhibits
Recombinant WEE2 protein
  WEE2 phosphorylation activity of CDK1: significantly reduces; also recorded: significantly inhibits
Bovine oocytes; 1 μM prior to and during IVF
  proportion of oocytes undergoing normal fertilization: reduction in the proportion of oocytes undergoing normal fertilization
Bovine oocytes; bovine oocytes co-cultured with inhibitor during IVF, N = 126
  reduction of MII exit compared to DMSO: 16%
HEK 293 cells; HEK 293, 0.01 μM
  somatic cell division activity (mitosis): decrease in mitosis
HEK 293 cells; HEK 293, 0.1 μM
  somatic cell division activity (mitosis): decrease in mitosis
HEK 293 cells; HEK 293, 1 μM
  somatic cell division activity (mitosis): inhibited mitosis in somatic cell culture after 48 h; also recorded: arrested the cell culture
MYT1 (PKMYT1)
  activity against MYT1 relative to WEE1 and WEE2: significantly weaker activity

— paper PMC7401407, “Development of WEE2 kinase inhibitors as novel non-hormonal female contraceptives that target meiosis” (Biology of Reproduction, 2020)
